{"source": "paper PMC8152350", "about": "“High cytotoxicity of betulin towards fish and murine fibroblasts: Is betulin safe for nonneoplastic cells?” (BMC Veterinary Research, 2021)", "key": {"[1]": {"system": "GSF3.2 goat skin fibroblasts", "set-up": "method as in earlier work", "conditions": "GSF3.2, trypan blue; cited from earlier work"}, "[2]": {"system": "murine Balb/3T3 fibroblasts", "set-up": "method as in PMID 16112835", "conditions": "Balb/3T3, MTT assay; cited from earlier work"}, "[3]": {"system": "NIH/3T3 cells", "assay": "MTT assay (mitochondrial activity), murine fibroblasts", "method": "NIH/3T3 (ATCC CRL-1658) mouse embryonic fibroblasts were grown in Dulbecco’s modified Eagle’s medium (DMEM) supplemented with 2 mM glutamine, 10 % foetal bovine serum and a 1 % antibiotic-antimycotic solution at 37 °C in a humidified atmosphere with 5 % CO2.\nNIH/3T3 and BF-2 cells were seeded in 96-well plates at a density of 1 × 10^4 or 2 × 10^4 cells per well, respectively. After 24 h of incubation at an appropriate temperature, cells were exposed to betulin at the concentrations mentioned above for 24, 48 and 72 h. Control (untreated) cells served as the negative control and a reference point. Triton X-100 treated cells served as the positive internal control in MTT, NRU and LDH assays. Due to the specific character of SRB assay, there was no positive control in this test. After 24, 48 and 72 h of treatment, the four different cytotoxicity assays were performed. All experiments were repeated three times.\nThe MTT assay is used to estimate mitochondrial damage, since it determines the activity of mitochondrial enzymes. These enzymes reduce the water-soluble tetrazolium dye MTT to insoluble purple formazan, which accumulates inside viable cells.\nThe MTT assay was conducted using the protocol described by Mosmann, with some modifications described in our previous article.\nThe MTT assay was used to determine the cytotoxicity of both betulin and the vehicle (DMSO).\nAll experiments were repeated three times. […] Statistical analyses were performed using GraphPad Prism software (GraphPad Software, USA). Data were subjected to one-way analysis of variance (ANOVA). Dunnett’s posttest was used to determine differences between control and betulin-exposed cells at the same time points. Differences between the two cell lines at the same time points were determined using Student’s t-test. The 50 % cytotoxic concentrations (CC50, defined as the concentration of the compound that reduced cell viability by 50 %) were calculated using the Quest Graph™ ED50 Calculator (AAT Bioquest, Inc.)."}, "[4]": {"system": "BF-2 cells", "assay": "MTT assay (mitochondrial activity), fish fibroblasts", "format": "cell-based, bluegill", "method": "BF-2 (ATCC CCL-91) bluegill caudal trunk fibroblasts were grown in minimum essential medium (Eagle, EBSS) supplemented with 1 % nonessential amino acids (NEAAs), 10 % foetal bovine serum and 1 % antibiotic-antimycotic solution at 23 °C in a humidified atmosphere with 5 % CO2.\nAll experiments were repeated three times."}}, "note": "Values joined by “and” are separate entries in the source; they are usually repeats but may differ in a detail not shown here. Equal values may be shown once.", "data": [{"compound": "C[S+](C)[O-]", "note": "[DMSO, Dimethyl sulfoxide]", "values": [{"measurement": "DMSO concentrations giving significant increase in the number of live cells", "setting": "[1]", "value": "less than 0.1%"}, {"measurement": "IC50 of DMSO", "setting": "[2]", "value": 2.75, "unit": "%"}, {"measurement": "CC50 DMSO (MTT) 24 h", "setting": "[3]; NIH/3T3, 24 h, mean ± SD, n = 3", "value": "2.989 ± 0.159", "unit": "%"}, {"measurement": "CC50 DMSO (MTT) 48 h", "setting": "[3]; NIH/3T3, 48 h, mean ± SD, n = 3", "value": "2.374 ± 0.395", "unit": "%"}, {"measurement": "CC50 DMSO (MTT) 72 h", "setting": "[3]; NIH/3T3, 72 h, mean ± SD, n = 3", "value": "1.635% and 1.635 ± 0.423%"}, {"measurement": "maximum tolerable DMSO concentration", "setting": "[3]; NIH/3T3, concentration at which viability exceeded 90 % throughout the experiment", "value": 0.625, "unit": "%"}, {"measurement": "DMSO concentration with absence of any measurable activity of mitochondria", "setting": "[3]; murine fibroblasts, MTT", "value": 10, "unit": "%"}, {"measurement": "CC50 DMSO (MTT) 24 h", "setting": "[4]; BF-2, 24 h, mean ± SD, n = 3", "value": "5.031 ± 0.423", "unit": "%"}, {"measurement": "CC50 DMSO (MTT) 48 h", "setting": "[4]; BF-2, 48 h, mean ± SD, n = 3", "value": "4.434 ± 0.717", "unit": "%"}, {"measurement": "CC50 DMSO (MTT) 72 h", "setting": "[4]; BF-2, 72 h, mean ± SD, n = 3", "value": "4.794% and 4.794 ± 0.337%"}, {"measurement": "maximum tolerable DMSO concentration", "setting": "[4]; BF-2, concentration at which viability exceeded 90 % throughout the experiment", "value": 1.25, "unit": "%"}, {"measurement": "DMSO concentration with absence of any measurable activity of mitochondria", "setting": "[4]; fish fibroblasts, MTT", "value": 20, "unit": "%"}]}]}
